Measured values reported in patent publication US20110212137A1, “INHALABLE PHARMACEUTICAL COMPOSITION” (TEVA BRANDED PHARMACEUTICAL PRODUCTS R&D, INC., priority 2010, published 2011).

Test system: Asthma patients
Assay: Retrospective observational cohort study (UK General Practice Research Database): odds of successful asthma control after ICS increase
Type: in vivo
Details: compared with Qvar; as the primary proxy plus average daily prescribed salbutamol no more than 200 mcg and terbutaline 500 mcg; 12 month follow-up
Excerpt: Qvar® and other inhaled corticosteroids (ICS) CFC-beclometasone (BDP) and fluticasone propionate (FP) were compared in a large representative, UK clinical database.
Patients were eligible if they had data available for the twelve months prior to AND twelve months after the date of ICS increase. Multiple logistic regression, adjusted for baseline severity, provided odds of successful asthma control (no asthma hospital attendances, oral steroids, consultations or hospital admissions for lower respiratory tract infections requiring antibiotics) during 12 month follow-up. Poisson regression was used to compare asthma exacerbation rates (unscheduled hospital admissions/A&E attendances for asthma or use of oral steroids).
Study Design: A retrospective, observational, cohort study design was used, consisting of two time periods: a baseline period for confounder definition (minimum of one year before index prescription date) and an outcome period of one year post-index prescription date. The study design is shown in schematic format in FIG. 1.
Statistical Analysis: Descriptive statistics were used to compare baseline outcomes. Multiple logistic regression, adjusted for baseline severity and other potential confounders found at baseline, was used to determine the odds of successful asthma control. Poisson regression was used to compare exacerbation rates. […]

## CCC(=O)O[C@]1(C(=O)SCF)[C@H](C)C[C@H]2[C@@H]3C[C@H](F)C4=CC(=O)C=C[C@]4(C)[C@@]3(F)[C@@H](O)C[C@@]21C [FP, fluticasone propionate]
  Adjusted odds ratio for successful asthma control, revised definition including SABA use: 0.90
